Target: GCN2 (Homo sapiens (Human), UniProt Q9P2K8)
Experiment: GCN2 Biochemical Assay (TR-FRET, GFP-eIF2S1 substrate phosphorylation)
Details: read-out: IC50 (GCN2 Inhibitory Activity)
Method in brief: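 TR-FRET readout (Ex 340, Em 490/520 nm) after 2–3 h with Tb-labelled phospho-eIF2S1 antibody in stop mix, following a 70 min room-temperature kinase step. Reaction: in-house GCN2, GFP-eIF2S1, ATP, tRNA in Tris pH 7.5 (2× stocks 1.6 nM, 50 nM, 0.2 mM); compounds tested at 10 concentrations, with a phospho-substrate artifact counter-plate.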

GCN2, sequence (Q9P2K8 whole entry): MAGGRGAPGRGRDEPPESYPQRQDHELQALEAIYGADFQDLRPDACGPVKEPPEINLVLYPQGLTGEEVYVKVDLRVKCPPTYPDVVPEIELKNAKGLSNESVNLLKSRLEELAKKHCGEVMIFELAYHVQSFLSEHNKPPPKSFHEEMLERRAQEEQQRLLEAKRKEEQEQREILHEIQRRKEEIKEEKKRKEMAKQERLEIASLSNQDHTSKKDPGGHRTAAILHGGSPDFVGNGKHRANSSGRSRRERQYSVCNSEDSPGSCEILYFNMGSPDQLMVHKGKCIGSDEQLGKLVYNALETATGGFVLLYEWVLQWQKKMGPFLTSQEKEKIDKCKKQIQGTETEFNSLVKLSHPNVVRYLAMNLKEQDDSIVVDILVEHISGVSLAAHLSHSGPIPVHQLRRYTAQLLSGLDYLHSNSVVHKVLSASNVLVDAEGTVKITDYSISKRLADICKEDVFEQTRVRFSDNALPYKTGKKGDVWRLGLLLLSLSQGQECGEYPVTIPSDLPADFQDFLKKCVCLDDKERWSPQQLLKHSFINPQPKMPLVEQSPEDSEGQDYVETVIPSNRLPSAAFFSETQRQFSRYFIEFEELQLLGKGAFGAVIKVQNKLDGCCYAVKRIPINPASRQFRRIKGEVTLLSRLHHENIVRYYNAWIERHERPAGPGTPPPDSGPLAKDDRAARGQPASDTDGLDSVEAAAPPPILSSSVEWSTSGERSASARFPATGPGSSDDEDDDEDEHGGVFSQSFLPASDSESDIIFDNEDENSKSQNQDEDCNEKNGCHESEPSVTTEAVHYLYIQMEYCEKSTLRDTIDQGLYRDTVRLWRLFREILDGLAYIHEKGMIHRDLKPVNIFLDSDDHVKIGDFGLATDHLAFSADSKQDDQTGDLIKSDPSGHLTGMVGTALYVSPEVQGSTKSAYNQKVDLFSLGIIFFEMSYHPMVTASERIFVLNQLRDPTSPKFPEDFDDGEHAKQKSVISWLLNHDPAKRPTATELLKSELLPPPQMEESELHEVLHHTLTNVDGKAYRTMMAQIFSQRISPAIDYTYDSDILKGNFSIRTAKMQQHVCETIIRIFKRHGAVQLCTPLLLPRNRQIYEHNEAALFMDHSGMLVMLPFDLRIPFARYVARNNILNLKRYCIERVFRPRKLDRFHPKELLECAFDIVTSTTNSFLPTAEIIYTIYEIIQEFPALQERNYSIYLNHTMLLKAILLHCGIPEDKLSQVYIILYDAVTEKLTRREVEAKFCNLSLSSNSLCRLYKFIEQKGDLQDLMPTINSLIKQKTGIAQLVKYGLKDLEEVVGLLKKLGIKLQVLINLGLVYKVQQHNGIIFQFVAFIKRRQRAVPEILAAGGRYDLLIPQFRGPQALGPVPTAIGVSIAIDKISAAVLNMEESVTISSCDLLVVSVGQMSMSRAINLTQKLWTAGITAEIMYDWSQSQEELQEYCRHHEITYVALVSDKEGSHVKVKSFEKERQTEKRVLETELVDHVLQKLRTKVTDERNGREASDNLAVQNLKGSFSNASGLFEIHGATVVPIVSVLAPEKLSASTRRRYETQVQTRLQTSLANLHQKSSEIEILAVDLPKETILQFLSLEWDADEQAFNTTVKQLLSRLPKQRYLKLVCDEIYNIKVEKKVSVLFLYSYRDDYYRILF

Cc1cnc(Nc2cc(C)n(C)n2)nc1-c1c[nH]c2c(N3Cc4c(cccc4C4=CCN(C(=O)OC(C)(C)C)CC4)C3=O)cccc12 [Example 397, tert-butyl 4-(2-(3-(2-((1,5-dimethyl-1H-pyrazol-3-yl)amino)-5-methylpyrimidin-4-yl)-1H-indol-7-yl)-1-oxoisoindolin-4-yl)-3,6-dihydropyridine-1(2H)-carboxylat]
IC50: < 10 nM

Cc1cnc(Nc2cc(C)n(C)n2)nc1-c1c[nH]c2c(N3Cc4c(cccc4-c4ccc(NC(=O)OC(C)(C)C)cc4)C3=O)cccc12 [Example 398, tert-butyl (4-(2-(3-(2-((1,5-dimethyl-1H-pyrazol-3-yl)amino)-5-methylpyrimidin-4-yl)-1H-indol-7-yl)-1-oxoisoindolin-4-yl)phenyl)carbamate]
IC50: 10 to 100 nM

Cc1cnc(Nc2cc(C)n(C)n2)nc1-c1c[nH]c2c(N3Cc4c(cccc4-c4ccnc(N)c4)C3=O)cccc12 [Example 399, 4-(2-aminopyridin-4-yl)-2-(3-(2-((1,5-dimethyl-1H-pyrazol-3-yl)amino)-5-methylpyrimidin-4-yl)-1H-indol-7-yl)isoindolin-1-one]
IC50: < 10 nM

Cc1cnc(Nc2cc(C)n(C)n2)nc1-c1c[nH]c2c(N3Cc4c(cccc4-c4ccncc4F)C3=O)cccc12 [Example 400, 2-(3-(2-((1,5-dimethyl-1H-pyrazol-3-yl)amino)-5-methylpyrimidin-4-yl)-1H-indol-7-yl)-4-(3-fluoropyridin-4-yl)isoindolin-1-one]
IC50: < 10 nM

Cc1cnc(Nc2cc(C)n(C)n2)nc1-c1c[nH]c2c(N3Cc4c(cccc4-c4ccc(O)nc4)C3=O)cccc12 [Example 401, 2-(3-(2-((1,5-dimethyl-1H-pyrazol-3-yl)amino)-5-methylpyrimidin-4-yl)-1H-indol-7-yl)-4-(6-hydroxypyridin-3-yl)isoindolin-1-one]
IC50: < 10 nM

Cc1cnc(Nc2cc(C)n(C)n2)nc1-c1c[nH]c2c(N3Cc4c(cccc4-c4ccnc(Cl)c4)C3=O)cccc12 [Example 402, 4-(2-chloropyridin-4-yl)-2-(3-(2-((1,5-dimethyl-1H-pyrazol-3-yl)amino)-5-methylpyrimidin-4-yl)-1H-indol-7-yl)isoindolin-1-one]
IC50: 10 to 100 nM

COc1cc(-c2cccc3c2CN(c2cccc4c(-c5nc(Nc6cc(C)n(C)n6)ncc5C)c[nH]c24)C3=O)c(F)cn1 [Example 403, 2-(3-(2-((1,5-dimethyl-1H-pyrazol-3-yl)amino)-5-methylpyrimidin-4-yl)-1H-indol-7-yl)-4-(5-fluoro-2-methoxypyridin-4-yl)isoindolin-1-one]
IC50: 10 to 100 nM

Cc1cnc(Nc2cc(C)n(C)n2)nc1-c1c[nH]c2c(N3Cc4c(cccc4-c4ccnc(F)c4)C3=O)cccc12 [Example 404, 2-(3-(2-((1,5-dimethyl-1H-pyrazol-3-yl)amino)-5-methylpyrimidin-4-yl)-1H-indol-7-yl)-4-(2-fluoropyridin-4-yl)isoindolin-1-one]
IC50: < 10 nM

Cc1cnc(Nc2cc(C)n(C)n2)nc1-c1c[nH]c2c(N3Cc4c(cccc4-c4ccc(Cl)nc4)C3=O)cccc12 [Example 405, 4-(6-chloropyridin-3-yl)-2-(3-(2-((1,5-dimethyl-1H-pyrazol-3-yl)amino)-5-methylpyrimidin-4-yl)-1H-indol-7-yl)isoindolin-1-one]
IC50: 10 to 100 nM

COc1ccc(-c2cccc3c2CN(c2cccc4c(-c5nc(Nc6cc(C)n(C)n6)ncc5C)c[nH]c24)C3=O)cn1 [Example 406, 2-(3-(2-((1,5-dimethyl-1H-pyrazol-3-yl)amino)-5-methylpyrimidin-4-yl)-1H-indol-7-yl)-4-(6-methoxypyridin-3-yl)isoindolin-1-one]
IC50: 10 to 100 nM

Cc1cc(-c2cccc3c2CN(c2cccc4c(-c5nc(Nc6cc(C)n(C)n6)ncc5C)c[nH]c24)C3=O)cnc1F [Example 407, 2-(3-(2-((1,5-dimethyl-1H-pyrazol-3-yl)amino)-5-methylpyrimidin-4-yl)-1H-indol-7-yl)-4-(6-fluoro-5-methylpyridin-3-yl)isoindolin-1-one]
IC50: 10 to 100 nM

Cc1cnc(Nc2cc(C)n(C)n2)nc1-c1c[nH]c2c(N3Cc4c(cccc4-c4ccnc(N5CCNCC5)c4)C3=O)cccc12 [Example 408, 2-(3-(2-((1,5-dimethyl-1H-pyrazol-3-yl)amino)-5-methylpyrimidin-4-yl)-1H-indol-7-yl)-4-(2-(piperazin-1-yl)pyridin-4-yl)isoindolin-1-one]
IC50: < 10 nM

Cc1cnc(Nc2cc(C)n(C)n2)nc1-c1c[nH]c2c(N3Cc4c(cccc4-c4ccc(S(=O)(=O)N5CCCC5)cc4)C3=O)cccc12 [Example 409, 2-(3-(2-((1,5-dimethyl-1H-pyrazol-3-yl)amino)-5-methylpyrimidin-4-yl)-1H-indol-7-yl)-4-(4-(pyrrolidin-1-ylsulfonyl)phenyl)isoindolin-1-one]
IC50: 10 to 100 nM

Cc1cnc(Nc2cc(C)n(C)n2)nc1-c1c[nH]c2c(N3Cc4c(/C=C/c5cccc(F)c5)cccc4C3=O)cccc12 [Example 410, (E)-2-(3-(2-((1,5-dimethyl-1H-pyrazol-3-yl)amino)-5-methylpyrimidin-4-yl)-1H-indol-7-yl)-4-(3-fluorostyryl)isoindolin-1-one]
IC50: 100 to 1000 nM

Cc1cnc(Nc2cc(C)n(C)n2)nc1-c1c[nH]c2c(N3Cc4c(cccc4-c4ccnc5[nH]ccc45)C3=O)cccc12 [Example 411, 2-(3-(2-((1,5-dimethyl-1H-pyrazol-3-yl)amino)-5-methylpyrimidin-4-yl)-1H-indol-7-yl)-4-(1H-pyrrolo[2,3-b]pyridin-4-yl)isoindolin-1-one]
IC50: < 10 nM

Cc1cnc(Nc2cc(C)n(C)n2)nc1-c1c[nH]c2c(N3Cc4c(cccc4-c4ccc(C(=O)N5CCC(=O)CC5)cc4)C3=O)cccc12 [Example 412, 2-(3-(2-((1,5-dimethyl-1H-pyrazol-3-yl)amino)-5-methylpyrimidin-4-yl)-1H-indol-7-yl)-4-(4-(4-oxopiperidine-1-carbonyl)phenyl)isoindolin-1-one]
IC50: < 10 nM

Cc1cnc(Nc2cc(C)n(C)n2)nc1-c1c[nH]c2c(N3Cc4c(cccc4C4=CCSCC4)C3=O)cccc12 [Example 413, 4-(3,6-dihydro-2H-thiopyran-4-yl)-2-(3-(2-((1,5-dimethyl-1H-pyrazol-3-yl)amino)-5-methylpyrimidin-4-yl)-1H-indol-7-yl)isoindolin-1-one]
IC50: < 10 nM

Cc1cnc(Nc2cc(C)n(C)n2)nc1-c1c[nH]c2c(N3Cc4c(cccc4-c4cnc(N(C)C)nc4)C3=O)cccc12 [Example 414, 2-(3-(2-((1,5-dimethyl-1H-pyrazol-3-yl)amino)-5-methylpyrimidin-4-yl)-1H-indol-7-yl)-4-(2-(dimethylamino)pyrimidin-5-yl)isoindolin-1-one]
IC50: < 10 nM

Cc1cnc(Nc2cc(C)n(C)n2)nc1-c1c[nH]c2c(N3Cc4c(cccc4-c4cnn(CC5CC5)c4)C3=O)cccc12 [Example 415, 4-(1-(cyclopropylmethyl)-1H-pyrazol-4-yl)-2-(3-(2-((1,5-dimethyl-1H-pyrazol-3-yl)amino)-5-methylpyrimidin-4-yl)-1H-indol-7-yl)isoindolin-1-one]
IC50: < 10 nM

Cc1cnc(Nc2cc(C)n(C)n2)nc1-c1c[nH]c2c(N3Cc4c(cccc4-c4cnn(CCN5CCOCC5)c4)C3=O)cccc12 [Example 416, 2-(3-(2-((1,5-dimethyl-1H-pyrazol-3-yl)amino)-5-methylpyrimidin-4-yl)-1H-indol-7-yl)-4-(1-(2-morpholinoethyl)-1H-pyrazol-4-yl)isoindolin-1-one]
IC50: < 10 nM

Source: patent publication US20240025884A1 (Dong-A ST Co., Ltd., priority 2022, published 2024)
